Converted amounts (≈) assume the structure as drawn.
How the values were obtained:
[1] = particle size distribution of raw material samples; format: physicochemical
Source text: In the present invention, D50 refers to the particle size corresponding to the cumulative volume distribution percentage of spirocyclic aryl phosphorus oxides or pharmaceutically acceptable salts thereof reaching 50% measured from a small particle size; D90 refers to the particle size corresponding to the cumulative volume distribution percentage of spirocyclic aryl phosphorus oxides or pharmaceutically acceptable salts thereof reaching 90% measured from a small particle size.

[2] = system: other related serine, threonine and tyrosine except EGFR wild type; experiment: kinase selectivity; format: biochemical; settings: in the detected concentration range
[3] = solubility in solvents (description of the substance); format: physicochemical
Source text: (§1) The solubility of the drug directly influences the dissolution rate of the composition containing the drug, which in turn influences the bioavailability of the pharmaceutical composition. Therefore, how to improve the dissolution rate of pharmaceutical compositions containing spirocyclic aryl phosphorus oxide in solvents other than hydrochloric acid has become an urgent problem to be solved.

[4] = hygroscopicity (description of the substance); format: physicochemical
Source text: as §1

[5] = Determination of solubility in buffers at different pHs (saturated solubility by HPLC); format: physicochemical; settings: for solubility at 24 h: thermodynamic from solid, 37° C.
Description: (§2) The solubilities of spirocyclic aryl phosphorus oxides in buffers at different pHs were determined. Nine test samples of 4 mg were each weighed and added to sample bottles of 1.5 mL, and then different solvents (0.1 mol/L HCl, 0.01 mol/L HCl, pH3.5 acetate buffer, pH4.5 acetate buffer, pH5.5 phosphate buffer, pH6.5 phosphate buffer, pH6.8 phosphate buffer, pH7.5 phosphate buffer and water) of 1 mL were added. According to the dissolution, the raw material compounds were continuously added to form a saturated solution. A magneton was added to the saturated solution and then stirred on a magnetic agitator (temperature was 37° C., away from light). After stirring for 24 hours, the samples were taken and centrifuged, and the residual solid samples in the lower layer were tested by X-ray powder diffraction (XRPD). The upper sample was filtered by a filter membrane, the final pH value of the filtrate was measured, and the saturated solubility of the compound was determined by high performance liquid chromatography (HPLC).

[6] = XRPD of residual solid in the solubility test; format: physicochemical; settings: 24 hrs
Description: as §2

For `COc1cc(N2CCC3(CCN(C)CC3)CC2)ccc1Nc1ncc(Cl)c(Nc2ccccc2P(C)(C)=O)n1` [Sample 3], the “Particle size D10 (μm)” value [1] was 1.6 μm, the “Particle size D50 (μm)” value [1] was 13.0 μm and the “Particle size D90 (μm)” value [1] was 40.3 μm.
In the case of `COc1cc(N2CCC3(CCN(C)CC3)CC2)ccc1Nc1ncc(Cl)c(Nc2ccccc2P(C)(C)=O)n1` [Sample 1], the “Particle size D10 (μm)” value [1] is reported as 0.7 μm, the “Particle size D50 (μm)” value [1] is reported as 5.4 μm and the “Particle size D90 (μm)” value [1] is reported as 11.6 μm.
For `COc1cc(N2CCC3(CCN(C)CC3)CC2)ccc1Nc1ncc(Cl)c(Nc2ccccc2P(C)(C)=O)n1` [Sample 5], the “Particle size D10 (μm)” value [1] was 1.8 μm, the “Particle size D50 (μm)” value [1] was 16.1 μm and the “Particle size D90 (μm)” value [1] was 69 μm.
For `COc1cc(N2CCC3(CCN(C)CC3)CC2)ccc1Nc1ncc(Cl)c(Nc2ccccc2P(C)(C)=O)n1` [Sample 2], the “Particle size D10 (μm)” value [1] was 1.3 μm, the “Particle size D50 (μm)” value [1] was 10.1 μm and the “Particle size D90 (μm)” value [1] was 27.1 μm.
For `COc1cc(N2CCC3(CCN(C)CC3)CC2)ccc1Nc1ncc(Cl)c(Nc2ccccc2P(C)(C)=O)n1` [spirocyclic aryl phosphorus oxide, (2-((5-chloro-2-((2-methoxy-4-(9-methyl-3,9-diazaspiro[5.5]undecan-3-yl)phenyl)amino)pyrimidin-4-yl)amino)phenyl)dimethylphosphine oxide], the “inhibitory activity to other kinases” value [2] was “Low inhibitory activity”, the solubility ([3]; 1 mol/L hydrochloric acid solution) was “easily soluble” and the solubility ([3]; 1 mol/L sodium hydroxide solution) was “practically insoluble, or insoluble”. The solubility ([3]; acetonitrile) was “slightly soluble”, the solubility ([3]; dichloromethane) was “easily soluble” and the solubility ([3]; ethanol) was “slightly soluble”. The solubility ([3]; methanol) was “sparingly soluble”, the solubility ([3]; water) was “slightly soluble” and the hygroscopicity [4] was “almost no hygroscopicity”. For the same molecule, the “Dose/solubility (mL, in 60 mg specifications)” value (“Dose/solubility” below) ([5]; 0.01 mol/L HCl (pH2.02)) was 8.69 mL, the “Conclusions (solubility class)” value ([5]; 0.1 mol/L HCl (pH 1.02)) was “soluble (10 ml to less than 30 ml)” and the “Dose/solubility” value ([5]; 0.1 mol/L HCl (pH 1.02)) was 1.12 mL. The solubility at 24 h ([5]; pH 2.02, simulated gastric fluid, 0.01 mol/L HCl (pH2.02)) was 6900 µg/mL (≈ 12.1 mM), the solubility at 24 h ([5]; pH 3.5 acetate buffer, aqueous buffer, pH 3.5 buffer (pH 3.53), acetate) was 279000 µg/mL (≈ 491 mM) and the “Dose/solubility” value ([5]; pH 3.5 buffer (pH 3.53)) was 0.22 mL. For the same molecule, the solubility at 24 h ([5]; pH 4.5 acetate buffer, aqueous buffer, pH 4.5 buffer (pH 4.49), acetate) was 108000 µg/mL (≈ 190 mM), the “Dose/solubility” value ([5]; pH 4.5 buffer (pH 4.49)) was 0.56 mL and the “Dose/solubility” value ([5]; pH 5.5 buffer (pH 5.47)) was 8.45 mL. For the same molecule, the solubility at 24 h ([5]; pH 5.5 phosphate buffer, aqueous buffer, pH 5.5 buffer (pH 5.47), phosphate) was 7100 µg/mL (≈ 12.5 mM), the “Dose/solubility” value ([5]; pH 6.5 buffer (pH 6.45)) was 5.41 mL and the solubility at 24 h ([5]; pH 6.5 phosphate buffer, aqueous buffer, pH 6.5 buffer (pH 6.45), phosphate) was 11100 µg/mL (≈ 19.5 mM). The “Dose/solubility” value ([5]; pH 6.8 buffer (pH 6.83)) was 16.67 mL, the solubility at 24 h ([5]; pH 6.8 phosphate buffer, aqueous buffer, pH 6.8 buffer (pH 6.83), phosphate) was 3600 µg/mL (≈ 6.33 mM) and the “Dose/solubility” value ([5]; pH 7.5 buffer (pH 7.53)) was 70.59 mL. It also gave a solubility at 24 h ([5]; pH 7.5 phosphate buffer, aqueous buffer, pH 7.5 buffer (pH 7.53), phosphate) of 850 µg/mL (≈ 1.49 mM), a solubility at 24 h ([5]; simulated gastric fluid, 0.1 mol/L HCl (pH 1.02)) of 53400 µg/mL (≈ 93.8 mM) and a solubility at 24 h ([5]; water (pH 6.33)) of 60 µg/mL (≈ 0.105 mM). The “Dose/solubility” value ([5]; water (pH 6.33)) was >250 mL, the “XRPD (crystal form of residual solid)” value ([6]; 0.01 mol/L HCl (pH2.02)) was “no change” and the “XRPD (crystal form of residual solid)” value ([6]; 0.1 mol/L HCl (pH 1.02)) was “no change”. For the same molecule, the “XRPD (crystal form of residual solid)” value ([6]; pH 3.5 buffer (pH 3.53)) was “no change”, the “XRPD (crystal form of residual solid)” value ([6]; pH 4.5 buffer (pH 4.49)) was “no change” and the “XRPD (crystal form of residual solid)” value ([6]; pH 5.5 buffer (pH 5.47)) was “no change”. The “XRPD (crystal form of residual solid)” value ([6]; pH 6.5 buffer (pH 6.45)) was “no change”, the “XRPD (crystal form of residual solid)” value ([6]; pH 6.8 buffer (pH 6.83)) was “no change” and the “XRPD (crystal form of residual solid)” value ([6]; pH 7.5 buffer (pH 7.53)) was “no change”. The “XRPD (crystal form of residual solid)” value ([6]; water (pH 6.33)) was “no change”.
For `COc1cc(N2CCC3(CCN(C)CC3)CC2)ccc1Nc1ncc(Cl)c(Nc2ccccc2P(C)(C)=O)n1` [Sample 7], the “Particle size D10 (μm)” value [1] was 6.8 μm, the “Particle size D50 (μm)” value [1] was 47.9 μm and the “Particle size D90 (μm)” value [1] was 122 μm.
With `COc1cc(N2CCC3(CCN(C)CC3)CC2)ccc1Nc1ncc(Cl)c(Nc2ccccc2P(C)(C)=O)n1` [Sample 4] the “Particle size D10 (μm)” value [1] was 5.0 μm, the “Particle size D50 (μm)” value [1] was 23.8 μm and the “Particle size D90 (μm)” value [1] was 62 μm.
In the case of `COc1cc(N2CCC3(CCN(C)CC3)CC2)ccc1Nc1ncc(Cl)c(Nc2ccccc2P(C)(C)=O)n1` [Sample 6], the “Particle size D10 (μm)” value [1] is reported as 2.3 μm, the “Particle size D50 (μm)” value [1] is reported as 18.2 μm and the “Particle size D90 (μm)” value [1] is reported as 79.6 μm.
In the case of `COc1cc(N2CCC3(CCN(C)CC3)CC2)ccc1Nc1ncc(Cl)c(Nc2ccccc2P(C)(C)=O)n1` [Sample 8], the “Particle size D10 (μm)” value [1] is reported as 7.8 μm, the “Particle size D50 (μm)” value [1] is reported as 63.1 μm and the “Particle size D90 (μm)” value [1] is reported as 193 μm.

Reference: patent publication US20240216402A1, “PHARMACEUTICAL COMPOSITION, AND PREPARATION METHOD THEREFOR AND APPLICATION THEREOF” (QILU PHARMACEUTICAL CO., LTD., priority 2021, published 2024)
